Measurements as given in patent publication US20250152702A1, “EPICHAPEROME INHIBITION TO IMPROVE T CELL RESPONSES” (priority 2023, published 2025).
“Also recorded” adds a separate entry of the source. Like-named read-outs stand apart in the source and are kept apart here.

Experiments:
IFNγ-secreting T cells = assay: OVA immunization of mice, OVA-specific T cell response by IFNγ ELISPOT; type: in vivo, C57BL/6 mice
Method: (§1) FIGS. 3A-3H. Disruption of the epichaperome using PU-H71 improves OVA-specific T cells response and anti-tumor immune response in a mouse model. (A) C57BL/6 (B6) mice were injected intraperitoneally (i.p.) with PU-H71 (75 mg/kg) n=8 or PBS n=8 on days 0, 3 and 7. On day 1, all mice were immunized subcutaneously (s.c.) with 100 μg OVA emulsified in incomplete Freund's adjuvant (IFA), experimental controls shown in schema. Peripheral blood (PB) was collected on days 0, 5 and 9, and the spleen was collected at the end of the experiment, on day 9. (B, C) T cell immunization against OVA was assessed by measuring IFN[…] release from T cells after exposure with OVA using Elispot assay. Two-tailed T test (D) Anti-OVA IgG in serum was assessed by ELISA. (E) B6 mice were immunized with OVA treated with PU-H71 (75 mg/kg) n=8 or PBS n=8 on days 11, 15 and 18. PB and spleen were collected at the end of the experiment, on day 20. (F) T cell immunization against OVA was assessed by measuring IFN[…] by Elispot assay. […] On day 7 after immunization, mice challenged with OVA-expressing EG.7 tumor cells (H) tumor volume was assessed every 2-3 days using calipers. p values shown for day 13 assessment by one-way ANOVA.
(§2) The effects of an epichaperome disrupter, PU-H71, were tested on C57BL/6 mice immune responses to ovalbumin (OVA) immunization. OVA-specific T- and B-cell responses were evaluated by ELISPOT and ELISA, respectively. […]
In vivo: In vivo assessment in immunization model: the well-characterized in vivo immunization model that utilizes chicken ovalbumin (OVA) will be used. […] Antibody production against OVA will be assessed in the peripheral blood (PB) at day 9 to confirm that the immunization took place (40). PU-H71 will be evaluated at different dosing schedules: before OVA administration to assess an effect on priming, shortly after OVA administration to assess an effect on T cell proliferation and polarization, and after the response has been completed (11 days) to evaluate an effect on the already ongoing response (for this cohort, mice will be sacrificed 9 days after PU-H71 treatment). […]

anti-OVA IgG = assay: OVA immunization of mice, anti-OVA antibody by ELISA; type: in vivo, C57BL/6 mice; details: PU-H71 at the time of priming
Method: as §1, with “PB and spleen were collected at the end of the experiment, on day 20.” left out
as §2

[1] = system: E.G7 (OVA+) lymphoma cells; assay: Anti-tumor response in OVA-immunized mice challenged with E.G7 lymphoma; type: in vivo, C57BL/6 mice
Method: as §1, with “ANOVA. […]” for “ANOVA.”
In vivo assessment in an anti-tumor response model: E.G7 cells are OVA-expressing cells derived from the C57BL/6 (H-2b) mouse lymphoma cell line EL4, allowing for the establishment of a syngeneic lymphoma mouse model to evaluate anti-tumor protection after OVA immunization (39). […] At day 7 after immunization, lymphoma cells will be injected subcutaneously into the mice, and tumor growth will be evaluated twice a week using micro calipers. Tumor volume will be determined as mm^3=length×width^2 (41). Survival will be also determined as an endpoint (mice will be euthanized when tumor size reaches 2000 mm^3 or the animals lose more than 10% of weight). Differences in tumor growth and survival will be determined in mice immunized with OVA and PU-H71 compared to the controls OVA+IFA or no immunization. […]

[2] = system: NALM6 (CD19+ B-ALL cell line)
Method: FIGS. 7A-7C. […] (A) Schematic representation. CART19/4-1BB or control T cells were cultured with NALM6 (CD19^+ B-ALL cell line) for 18 h at a E:T ratio of 1:1. (B) Cytotoxicity was evaluated by flow cytometry and represented as relative to the number of dead cells in the control cells (no effector cells). Experiment performed in triplicate, Error bar represents the SEM, significance assessed using ANOVA test. (C) In vivo testing.
To better understand its effect on human T cells and its potential adjuvant effect during cellular therapy, in vitro and in vivo chimeric antigen receptor (CAR)-T cell (CAR-T cells) phenotype and function in the presence of PU-H71 was tested. […] Finally, the therapeutic effect of the combination of PU-H71 and CART19 was evaluated in a B-ALL NSG mouse model using NALM6-BLIV cells, with bioluminescence imaging and flow cytometry (CART19 and leukemic cells) monitoring.
To investigate the impact of epichaperome disruption on CAR T cells, CART19/4-1BB was generated and tested. […] Subsequently, the impact of epichaperome disruption on the function of CART19/4-1BB cells was assessed during co-culture with leukemia cells expressing CD19. The cytotoxic effect of CART19/4-1BB cells against Nalm-6 (CD19^+ B-ALL cell line) was measured with or without 1 μM PU-H71 (FIG. 7).

NALM6-BLIV cells = assay: B-ALL NSG mouse model with NALM6-BLIV cells, PU-H71 combined with CART19; type: in vivo
Method: Nalm-6 xenograft: Xenografts will be initiated using CD19^+ B-cell acute lymphoblastic leukemia (B-ALL), Nalm-6 cells expressing luciferase and GFP (BLIV/GFP) transplanted into NSG mice (59). Anti-CD19 CAR T cells (CART19/4-1BB) or non-transduced T cells (NTC) will be administered once engraftment is confirmed by bioluminescence and flow cytometry. Four treatment cohorts will be studied: (1) saline, (2) PU-H71 (75 mg/kg i.p. bi-weekly), (3) CART19/4-1BB, (4) PU-H71 (75 mg/kgi.p. bi-weekly)+CART19/4-1BB. Each cohort will consist of 8 mice, ensuring >80% power at two-sided alpha of 0.05 to detect a standardized effect size of 1.6 in tumor burden and immune cell modulation, and will include both male and female mice. The PU-H71 dose and schedule will be determined based on data (9, 17). Tumor progression will be monitored weekly using bioluminescence imaging, with CAR T cell percentage and phenotype assessed in PB from day 2 onwards and every subsequent week, as published previously (17, 59). Bone marrow (BM) aspirates on day 14 will assess tumor burden and CAR T persistence. At the endpoint, the spleen, BM, and PB will be harvested to determine leukemia burden and CAR T cell phenotype.

activated T cells = assay: Activated human T cells treated with PU-H71: survival and surface phenotype by flow cytometry; type: cell-based
Method: FIGS. 2A-2D. Epichaperomes are formed in activated T cells and their disruption impacts T cell activation phenotype but not survival. (A) Resting T cells from healthy donors were assayed for the abundance of epichaperomes by flow cytometry. (B) Purified T cells activated with anti-CD3/CD28 beads were tested for changes in epichaperome abundance 20 h after activation and compared with resting T cells and MV4-11 as a positive control. n=3, One-way ANOVA ** p<0.002, *** p<0.0002 (C, D) T cells were treated with 1 μM PU-H71 upon activation to assess the effect of epichaperome disruption on survival (C) and cell surface phenotype (CD4, CD8, CD25, CD69, HLA-DR) n=3 *p<0.03 two-tailed T-test (D).
Thus, epichaperome formation skews the balance of T cell populations and functions towards an immunosuppressive outcome, a balance that can be restored to a cytotoxic function by epichaperome disruptors. This leads to a role of epichaperome disruptors, such as PU-H71, in CAR T cell cytotoxicity and the ability of epichaperome disruptors, such as, PU-H71, to improve the outcomes of AML patients in the post-transplant setting by improving GvL without affecting GvHD.

[3] = system: acute myeloid leukemia (AML); details: cited from earlier work; for exacerbation of GvHD in the patient: patient with donor T cell chimerism after failed allo-HSCT; for duration of complete remission: single agent, AML patient with high epichaperome abundance, post-transplant relapse
Hsp90 = details: cited from earlier work

SMILES: CC(C)NCCCn1c(Sc2cc3c(cc2I)OCO3)nc2c(N)ncnc21 [PU-H71, 8-[(6-iodo-1,3-benzodioxol-5-yl)sulfanyl]-9-[3-(propan-2-ylamino)propyl]purin-6-amine]
- number of IFNγ-secreting T cells (median) (IFNγ-secreting T cells; PU-H71 75 mg/kg i.p. at the time of priming, OVA immunization, ELISPOT, n=8, controls 42, p=0.0002): 126 per million of cells
- effect on OVA-specific T cell response (IFNγ-secreting T cells; PU-H71 administered once the OVA-specific T cell response was ongoing): no effect
- impact on T cell phenotype (IFNγ-secreting T cells; PU-H71 at the time of priming): without overt impact; also recorded: without an impact
- impact on anti-OVA antibody levels (anti-OVA IgG): without overt impact; also recorded: without an impact
- in vivo anti-tumor immune response / tumor progression ([1]; OVA-primed mice plus PU-H71, E.G7 challenge): significantly decreases tumor progression; also recorded: improved in vivo anti-tumor immune responses
- ability to control tumor progression ([1]; PU-H71 without immunization, n=6): 16 days
- ability to control tumor progression ([1]; mice immunized against OVA without IFA and treated with PU-H71, OVA alone 16 days, saline 14 days, n=8): 18 days
- in vitro cytotoxicity of CAR-T cells toward NALM6 B-ALL cells [2]: 74.66%
- CART19 numbers in the bone marrow (NALM6-BLIV cells): increases CART19 numbers in the bone marrow
- in vivo antitumor efficacy of CART19 against NALM6 (NALM6-BLIV cells): improves their in vivo antitumor efficacy
- CD4 to CD8 ratio (activated T cells; 1 μM PU-H71 upon activation): increase of CD8^+ cells; also recorded: skewed towards more CD8^+ cells
- expression of activation marker CD69 (activated T cells; 1 μM PU-H71 upon activation): not significantly changed
- viability of activated T cells (activated T cells; 1 μM PU-H71 upon activation with anti-CD3/CD28 beads): no detrimental effect
- myelosuppression and drug-related toxicities ([3]; patient treated for >5 yrs): without significant myelosuppression or drug-related extramedullary toxicities
- exacerbation of GvHD in the patient [3]: did not exacerbate GvHD; also recorded: did not exacerbate these symptoms
- exacerbation of GvHD in the patient ([3]; listed as Zelavespib): without exacerbation of GvHD
- exacerbation of GvHD in the patient ([3]; listed as zelavespib): no clinically relevant exacerbation
- time to complete remission (CR) ([3]; single AML patient): ≤ 45 days
- duration of complete remission [3]: over five years
- duration of complete remission ([3]; listed as Zelavespib): > 5 years
- duration of complete remission ([3]; listed as zelavespib): over 5 years
- binding preference for Hsp90 form (Hsp90): preferential binding to Hsp90 when it is in the highly integrated complexed form that is the epichaperome
